Measurements published in the supplement of paper PMC12494721.
Counter-ions that a name gives are not always drawn.

What was measured:
Conditions in all cases: incubation time: 27 h, anaerobic, 37 °C
[1] = test system: Klebsiella aerogenes DSM 30053; assay: fold change of Cadaverine concentration vs plate DMSO controls (fold change (ratio)); higher = more amine produced
[2] = test system: Ruminococcus gnavus DSM 108212; assay: growth (OD595) fold change vs plate DMSO controls (fold change (ratio)); higher = more growth
[3] = test system: Klebsiella aerogenes DSM 30053; assay: as above
[4] = test system: Klebsiella aerogenes DSM 30053; assay: fold change of Histamine concentration vs plate DMSO controls (fold change (ratio)); higher = more amine produced
Procedure: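 Dose-response follow-up: bacteria (E. coli IAI1, K. aerogenes DSM 30053, C. sporogenes DSM 1664, R. gnavus DSM 108212) were grown anaerobically in mGAM at 37 °C for 27 h with compound at 0.6125-20 µM. Amines were measured in the whole culture by targeted LC-MS/MS. Metabolite fold change and OD595 fold change are relative to plate DMSO controls; n=2 biological replicates. OD fold changes are not clipped, so slightly negative values mean no growth.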

[5] = test system: Ruminococcus gnavus DSM 108212; assay: fold change of 2-Phenylethylamine concentration vs plate DMSO controls (fold change (ratio)); higher = more amine produced
[6] = test system: Klebsiella aerogenes DSM 30053; assay: fold change of Putrescine concentration vs plate DMSO controls (fold change (ratio)); higher = more amine produced
[7] = test system: Ruminococcus gnavus DSM 108212; assay: fold change of Tryptamine concentration vs plate DMSO controls (fold change (ratio)); higher = more amine produced
[8] = test system: Clostridium sporogenes DSM 1664; assay: growth (OD595) fold change vs plate DMSO controls (fold change (ratio)); higher = more growth
[9] = test system: Clostridium sporogenes DSM 1664; assay: fold change of Tryptamine concentration vs plate DMSO controls (fold change (ratio)); higher = more amine produced
[10] = test system: Escherichia coli IAI1; assay: fold change of Cadaverine concentration vs plate DMSO controls (fold change (ratio)); higher = more amine produced
[11] = test system: Escherichia coli IAI1; assay: growth (OD595) fold change vs plate DMSO controls (fold change (ratio)); higher = more growth
[12] = test system: Escherichia coli IAI1; assay: fold change of Putrescine concentration vs plate DMSO controls (fold change (ratio)); higher = more amine produced

N[C@@H]1CCCCN(c2c(F)cc3c(=O)c(C(=O)O)cn(C4CC4)c3c2Cl)C1 [Besifloxacin hydrochloride]
Conditions	fold change of 2-Phenylethylamine concentration, [5]	fold change of Cadaverine concentration, [1]	fold change of Histamine concentration, [4]	fold change of Putrescine concentration, [6]	fold change of Tryptamine concentration, [7]	growth, [2]	growth, [3]
0.6125 µM	1.11	0.955	1.18	1.02	1.36	1.01	1.32
1.25 µM	0.219	1.03	0.938	1.22	0.415	0.127	0.476
2.5 µM	0.487	1.02	0.188	1.26	0.746	0.193	0.277
5 µM	0.44	1.02	0.166	1.36	0.657	0.207	0.336
10 µM	0.321	1	0.185	1.43	0.451	0.22	0.358
20 µM	0.296	0.981	0.241	1.4	0.385	0.182	0.302

Oc1c(Cl)cc(Cl)cc1Sc1cc(Cl)cc(Cl)c1O [Bithionol]
Conditions	fold change of Tryptamine concentration, [9]	growth, [8]
0.6125 µM	1.09	1.23
1.25 µM	1.06	1.2
2.5 µM	1.07	0.906
5 µM	0.891	0.716
10 µM	0.0764	0.142
20 µM	0.0165	-0.0314

COC(=O)N/N=C/c1c[n+]([O-])c2ccccc2[n+]1[O-] [Carbadox]
Conditions	fold change of Tryptamine concentration, [9]	growth, [8]
0.6125 µM	0.852	1.09
1.25 µM	0.79	0.89
2.5 µM	0.724	0.999
5 µM	0.739	1.04
10 µM	0.774	0.742
20 µM	0.343	0.333

Cn1nnnc1SCC1=C(C(=O)O)N2C(=O)[C@@H](NC(=O)[C@H](O)c3ccccc3)[C@H]2SC1 [Cefamandole sodium salt]
Conditions	fold change of 2-Phenylethylamine concentration, [5]	fold change of Tryptamine concentration, [7]	growth, [2]
0.6125 µM	0.85	0.992	1.26
1.25 µM	0.767	0.847	1.29
2.5 µM	0.996	1.2	1.53
5 µM	0.492	0.675	0.889
10 µM	0.244	0.357	0.479
20 µM	0.178	0.263	0.481

CO[C@@]1(NC(=O)C2SC(=C(C(N)=O)C(=O)O)S2)C(=O)N2C(C(=O)O)=C(CSc3nnnn3C)CS[C@@H]21 (stereo not given in full) [Cefotetan]
Conditions	fold change of Cadaverine concentration, [10]	fold change of Putrescine concentration, [12]	growth, [11]
0.6125 µM	1.08	0.781	0.849
1.25 µM	1.22	1.01	0.812
2.5 µM	1.18	0.823	0.978
5 µM	2.07	2.04	0.728
10 µM	2.24	2.6	0.123
20 µM	2.29	1.48	0.0366

CN(C)CCn1nnnc1SCC1=C(C(=O)O)N2C(=O)[C@@H](NC(=O)Cc3csc(N)n3)[C@H]2SC1 [Cefotiam hydrochloride]
Conditions	fold change of Cadaverine concentration, [10]	fold change of Putrescine concentration, [12]	fold change of Tryptamine concentration, [9]	growth, [8]	growth, [11]
0.6125 µM	1.29	0.767	1.02	0.8	0.969
1.25 µM	1.27	0.89	0.833	0.293	1.03
2.5 µM	1.71	2.91	0.0314	0.273	0.906
5 µM	1.34	0.839	0.0234	-0.0402	-0.0152
10 µM	0.568	0.15	0.025	-0.0341	-0.055
20 µM	0.594	0.148	0.0225	-0.0328	-0.0576

Cc1cc(O)c(C(=O)N[C@@H](C(=O)N[C@@H]2C(=O)N3C(C(=O)O)=C(CSc4nnnn4C)CS[C@H]23)c2ccc(O)cc2)cn1 [Cefpiramide]
Conditions	fold change of 2-Phenylethylamine concentration, [5]	fold change of Cadaverine concentration, [10]	fold change of Putrescine concentration, [12]	fold change of Tryptamine concentration, [7]	growth, [2]	growth, [11]
0.6125 µM	0.656	1.44	0.827	0.773	1.28	0.836
1.25 µM	0.288	1.57	1.34	0.388	0.921	0.802
2.5 µM	0.158	1.97	3.19	0.226	0.902	0.44
5 µM	0.132	2.19	2.27	0.183	0.827	0.259
10 µM	0.107	2.26	1.28	0.154	0.698	0.00195
20 µM	0.131	2.23	0.966	0.147	0.575	-0.0159

O=C(N[C@H](CO)[C@H](O)c1ccc([N+](=O)[O-])cc1)C(Cl)Cl [Chloramphenicol]
Conditions	fold change of 2-Phenylethylamine concentration, [5]	fold change of Tryptamine concentration, [7]	growth, [2]
0.6125 µM	1	1.05	0.858
1.25 µM	0.839	0.822	0.8
2.5 µM	0.648	0.595	0.814
5 µM	0.601	0.577	0.765
10 µM	0.477	0.506	0.647
20 µM	0.174	0.175	0.204

Cc1ncc([N+](=O)[O-])n1C [Dimetridazole]
Conditions	fold change of Tryptamine concentration, [9]	growth, [8]
0.6125 µM	0.869	1.15
1.25 µM	0.772	1.1
2.5 µM	0.685	0.842
5 µM	0.184	1.1
10 µM	0.0282	-0.0122
20 µM	0.0226	-0.0151

C[C@@H](O)[C@H]1C(=O)N2C(C(=O)O)=C(S[C@@H]3CN[C@H](CNS(N)(=O)=O)C3)[C@H](C)[C@H]12 [Doripenem monohydrate]
Conditions	fold change of 2-Phenylethylamine concentration, [5]	fold change of Tryptamine concentration, [7]	growth, [2]
0.6125 µM	0.242	0.35	1.74
1.25 µM	0.158	0.206	0.893
2.5 µM	0.118	0.16	2.1
5 µM	0.119	0.15	0.381
10 µM	0.0974	0.121	0.355
20 µM	0.111	0.128	0.36

CS(=O)(=O)c1ccc([C@@H](O)[C@@H](CF)NC(=O)C(Cl)Cl)cc1 [Florfenicol]
Conditions	fold change of 2-Phenylethylamine concentration, [5]	fold change of Tryptamine concentration, [7]	fold change of Tryptamine concentration, [9]	growth, [2]	growth, [8]
0.6125 µM	0.644	0.662	0.86	0.826	1.14
1.25 µM	0.572	0.537	0.636	0.757	0.685
2.5 µM	0.509	0.516	0.0416	0.681	0.0218
5 µM	0.311	0.393	0.0331	0.386	-0.0331
10 µM	0.203	0.261	0.0302	0.252	-0.0315
20 µM	0.199	0.241	0.0273	0.0641	-0.0323

CC1CCc2cc(F)cc3c(=O)c(C(=O)O)cn1c23 (stereo not given) [Flumequine]
Conditions	fold change of Tryptamine concentration, [9]	growth, [8]
0.6125 µM	1.03	1.02
1.25 µM	1.06	1.04
2.5 µM	1.11	1
5 µM	0.996	0.948
10 µM	0.569	0.659
20 µM	0.0662	0.202

COc1c(N2C[C@@H]3CCCN[C@@H]3C2)c(F)cc2c(=O)c(C(=O)O)cn(C3CC3)c12 [Moxifloxacin]
Conditions	fold change of 2-Phenylethylamine concentration, [5]	fold change of Tryptamine concentration, [7]	growth, [2]
0.6125 µM	2.13	2.33	0.813
1.25 µM	2.4	2.83	0.562
2.5 µM	2.64	3.17	0.528
5 µM	2.66	3.27	0.491
10 µM	1.29	2	0.279
20 µM	0.274	0.511	0.119

OC[C@H]1O[C@@H](n2cnc3cncnc32)[C@H](O)[C@@H]1O [Nebularine]
Conditions	fold change of 2-Phenylethylamine concentration, [5]	fold change of Tryptamine concentration, [7]	growth, [2]
0.6125 µM	0.725	0.84	0.842
1.25 µM	0.65	0.755	0.629
2.5 µM	0.367	0.503	0.339
5 µM	0.321	0.464	0.336
10 µM	0.413	0.552	0.336
20 µM	0.434	0.585	0.333

CCn1cc(C(=O)O)c(=O)c2cc(F)c(N3CCNCC3)cc21 [Norfloxacin]
Conditions	fold change of 2-Phenylethylamine concentration, [5]	fold change of Cadaverine concentration, [1]	fold change of Histamine concentration, [4]	fold change of Putrescine concentration, [6]	fold change of Tryptamine concentration, [7]	fold change of Tryptamine concentration, [9]	growth, [2]	growth, [3]	growth, [8]
0.6125 µM	1.3	0.969	1.18	1.02	1.44	0.911	1.36	1.14	1.02
1.25 µM	1.98	1.02	0.775	1.21	2.07	0.589	0.823	0.479	0.736
2.5 µM	1.23	1	0.571	1.29	1.45	0.0459	0.713	0.363	0.00966
5 µM	1.2	1	0.19	1.31	1.32	0.035	0.628	0.384	0.0175
10 µM	1.25	1.01	0.262	1.37	1.41	0.0429	0.607	0.385	0.0423
20 µM	1.38	1	0.237	1.37	1.51	0.0345	0.425	0.256	0.00666

CO[C@H]1/C=C/O[C@@]2(C)Oc3c(C)c(O)c4c(O)c(c5c(nc6cc(C)ccn65)c4c3C2=O)NC(=O)/C(C)=C\C=C\[C@H](C)[C@H](O)[C@@H](C)[C@@H](O)[C@@H](C)[C@H](OC(C)=O)[C@@H]1C [Rifaximin]
Conditions	fold change of Tryptamine concentration, [9]	growth, [8]
0.6125 µM	0.601	1.05
1.25 µM	0.0574	0.257
2.5 µM	0.03	-0.0262
5 µM	0.0292	-0.0255
10 µM	0.0294	-0.0254
20 µM	0.0294	-0.0277
